{
  "source": "patent US11298396B2",
  "about": "“Agent for inhibiting or reducing light sensitivity” (Osaka University, priority 2017, dated 2022)",
  "molecules": {"B1": {"name": "C-terminal protein (C-terminal 298 residues) of the mouse Klhl18 gene: C-terminal 298 residues of mouse Klhl18 protein, expressed from plasmid pCAG-N-3× FLAG-C-Klhl18; acts as dominant negative (protein)", "chain": "RTRPRCCTSIAGLIYAVGGLNSAGDSLNVVEVFDPIANRWEKCHPMTTARSRVGVAVVNGLLYAIGGYDGQLRLSTVEAYNPETDTWTRVGSMNSKRSAMGTVVLDGQIYVCGGYDGNSSLNSVETYSPETDKWTVVTPMSSNRSAAGVTVFEGRIYVSGGHDGLQIFSSVEHYNHHTATWHPAASMLNKRCRHGAASLGSKMFVCGGYDGSGFLSIAEMYSSVADQWCLIVPMHTRRSRVSLVASCGRLYAVGGYDGQSNLSSVEMYDPETDRWTFMAPMACHEGGVGVGCIPLLTI", "modifications": "left off: small tags and cut ends", "notes": "C-terminal 298 residues of mouse Klhl18 protein, expressed from plasmid pCAG-N-3× FLAG-C-Klhl18; acts as dominant negative"}},
  "key": {"BALB/c mice [1]": {"test_system": "BALB/c mice", "experiment": "Light-induced damage in mice, electroretinogram (ERG) recording", "format": "in vivo, mouse", "conditions": "60 mg/kg subcutaneous; blue LED about 450 nm, about 7000 lux, 3 hours, cycle repeated for three days; ERG four days after final exposure; vs DMSO control (FIG. 24)", "procedure": "Wild-type or Klhl18 KO mice of postnatal 2 months were light adapted or dark adapted. Light adaptation was performed at a light level of about 1000 lux for 1 hour or longer, and dark adaptation was performed by keeping the mice in a dark room for 4 hours or longer. Anesthesia was performed on dark-adapted or light-adapted mice with intraperitoneal injection of ketamine (100 mg/kg body weight per mouse) and xylazine (10 mg/kg body weight per mouse) in saline. Pupils were dilated with topical administration to the eyes with a mixture of 0.5% tropicamide and 0.5% phenylephrine HCl. ERG responses were measured with LED electrodes that emit a white flash (PuREC; Mayo Corporation). The mouse cornea was brought into contact with the electrodes, and stimulated with the stimulating flash using LED Visual Stimulator (LS-100, Mayo Corporation), and the ERG waves were recorded by TA-100 (Mayo Corporation) (FIGS. 7A and 8A). Strobe light stimulation with four levels of stimulus intensities ranging from −4.0 to 1.0 log cd−s/m^2 (−4.0, −3.0, −1.0 and 1 log cd−s/m^2) were used for the scotopic ERGs to measure the function of rod photoreceptor cells. […] From the wave data, a-waves and b-waves were quantified and expressed as the mean value±standard error. The photopic ERGs were recorded on a rod-suppressing white background of 1.3 log cd/m^2. […]"}, "BALB/c mice [2]": {"test_system": "BALB/c mice", "experiment": "Light-induced damage in mice, fluorescence immunostaining of the retina", "format": "in vivo, mouse", "conditions": "60 mg/kg subcutaneous; blue light damage for three days; vs DMSO control (FIG. 25)", "procedure": "Fluorescent immunostaining was performed using the mouse retinal sections. Specifically, the mouse retinal sections prepared in the same manner as in Example 2 (2) were washed twice with PBS, and blocked with blocking buffer (4% Normal donkey serum/0.1% Triton X-100/PBS) at room temperature for 1 hour. The sections were reacted with a primary antibody at 4° C. overnight. The sections were washed three times with PBS, and reacted with a secondary antibody at room temperature for 2 hours. The primary antibody was anti-Rhodopsin antibody (rhodopsin, rabbit polyclonal, Santa Cruz, 1:500 dilution) or anti-S-opsin antibody (S-opsin (blue cone opsin), goat polyclonal, Santa Cruz, 1:500 dilution). The secondary antibody was Alexa Flour 488-conjugated anti-rabbit antibody (Thermo Fisher Scientific, 1:500 dilution) or Cy3 antibody (Jackson ImmunoResearch Laboratories, 1:500 dilution). After completion of reaction with the secondary antibody, the specimens were washed three times with PBS and sealed in mounting medium. All fluorescence images were taken under a confocal laser scanning microscope (LSM 700, Carl Zeiss).\nMLN4924 (Chemscene) (60 mg/kg) was subcutaneously injected into the back of 4-weeks-old BALB/c mice (Japan SLC) that were kept in a dark place for 7 hours to be adapted to darkness. […]"}, "BALB/c mice [3]": {"test_system": "BALB/c mice", "experiment": "Light-induced damage in mice, thickness of the photoreceptor layer (toluidine blue staining)", "format": "in vivo, mouse", "conditions": "60 mg/kg subcutaneous; blue light damage for three days; vs DMSO control (FIG. 26)", "procedure": "Retinal sections of wild-type control mice and Klhl18 KO mice with light-induced damage were prepared in the same manner as in Example 2 (2). The mouse retinal sections were used to measure the thickness of the photoreceptor layer in the same manner as in Example 5. Specifically, the sections were washed with PBS and stained with 0.1% toluidine blue (Sigma)/PBS for 1 minute. The sections were washed three times with PBS, and sealed in mounting medium. The sealed specimens were observed under an upright microscope equipped with a differential interference contrast objective lens. The thickness of the photoreceptor layer was determined by measuring the distance from the optic nerve.\nMLN4924 (Chemscene) (60 mg/kg) was subcutaneously injected into the back of 4-weeks-old BALB/c mice (Japan SLC) that were kept in a dark place for 7 hours to be adapted to darkness. Four hours later, the mice were placed in a box with four mirrored walls and a mirrored floor, and exposed to blue LED light. The wavelength of the light was about 450 nm, and the light reaching the mice was at about 7000 lux. After three hours of exposure to the blue light, the mice were kept in the normal environment for 10 hours. This cycle was repeated for three days. […]"}, "Klhl18 protein": {"test_system": "Klhl18 protein", "experiment": "Inhibition of Klhl18-mediated degradation of Unc119 in transfected HEK293T cells, Western blotting", "format": "cell-based, mouse", "procedure": "Retinal tissue was harvested from one month old Klhl18 KO mice and wild-type (C57BL/6J strain) mice (purchased from Japan SLC) according to the conventional method. The retinal tissue was dissolved in 2× sample buffer (0.1 M Tris-HCl (pH 6.8), 1% SDS, 5% β-mercaptoethanol, 10% glycerol, and 0.02% BPB) and heat-treated at 100° C. for 5 minutes. SDS-PAGE was performed and the separated proteins on the gel were electrically transferred to a PVDF membrane (Merck Millipore) at 12 V for 90 minutes. The PVDF membrane was blocked with blocking solution (5% skim milk and 0.05% Tween 20/TBS) with shaking at room temperature for 1 hour. The PVDF membrane was reacted with a primary antibody diluted in the blocking solution at 4° C. overnight. The primary antibody was anti-Unc119 antibody (mouse monoclonal, a gift from Dr. Haeseleer (University of Washington, USA) (Haeseleer, 2008), 1:10 dilution) or α-Tublin antibody (mouse monoclonal, Sigma, 1:6,000 dilution). After completion of reaction with the primary antibody, the PVDF membrane was washed three times with 0.05% Tween 20/TBS with shaking at room temperature for 10 minutes. The PVDF membrane was reacted with a secondary antibody diluted in the blocking solution at room temperature for 1 hour. The secondary antibody was anti-mouse IgG (H+L) HRP-conjugated antibody (goat polyclonal, Zymed, 1:6,000 dilution). After completion of reaction with the secondary antibody, the PVDF membrane was again washed three times with 0.05% Tween 20/TBS with shaking at room temperature for […]. The PVDF membrane was reacted with chemiluminescent reagent (Chemi-Lumi One (Nacalai Tesque)) or Pierce Western Blotting Substrate Plus (Thermo Fisher Scientific). The membrane was exposed to an X-ray film, and the protein of interest was detected using a film processor.\nThe HEK293T cell line was cultured in DMEM (Wako Pure Chemical Industries) supplemented with antibiotics (penicillin (100 μg/mL)/streptomycin (100 μg/mL)) and 10% FBS at 37° C. under 5% CO2. […]"}},
  "note": "Residues, ends and D or L forms follow the SMILES beside them. *: point of attachment. Cbz = O=C(OCc1ccccc1)*",
  "data": [
    {"molecule": "NS(=O)(=O)OC[C@@H]1C[C@@H](n2ccc3c(N[C@H]4CCc5ccccc54)ncnc32)C[C@@H]1O", "note": "[MLN4924]", "values": [
      {"measurement": "electric amplitudes of the a-waves (photoreceptor cell activity)", "setting": "BALB/c mice [1]", "result": "higher than those in the control mice"},
      {"measurement": "electric amplitudes of the b-waves (bipolar cell activity)", "setting": "BALB/c mice [1]", "result": "higher than those in the control mice"},
      {"measurement": "signal intensities and thickness of cone photoreceptor cells (markers: S-opsin and M-opsin)", "setting": "BALB/c mice [2]", "result": "better retained as compared with those in the control mice"},
      {"measurement": "signal intensities and thickness of rod photoreceptor cells (marker: rhodopsin)", "setting": "BALB/c mice [2]", "result": "better retained as compared with those in the control mice"},
      {"measurement": "thickness of the photoreceptor layer in the retina", "setting": "BALB/c mice [3]", "result": "better maintained as compared with that of the control mice"},
      {"measurement": "degradation of the target Unc119 protein by the full-length Klhl18 protein", "setting": "Klhl18 protein; HEK293T cells, MLN4924 final concentration 0.3 μM, 6 hours, vs 0.3% DMSO (FIG. 15)", "result": "inhibits degradation of the target Unc119 protein by the full-length Klhl18 protein"}
    ]},
    {"molecule": "CC(C)C[C@@H](C=O)NC(=O)[C@H](CC(C)C)NC(=O)[C@H](CC(C)C)NC(=O)OCc1ccccc1", "note": "[MG-132] (Cbz-Leu-Leu-Leu-aldehyde)", "values": [
      {"measurement": "degradation of the target protein Unc119 by the full-length Klhl18 protein", "setting": "Klhl18 protein; HEK293T cells, MG-132 final concentration 10 μM, 6 hours, vs 0.1% DMSO (FIG. 11)", "result": "inhibits degradation of the target protein Unc119 by the full-length Klhl18 protein"}
    ]},
    {"molecule": "B1", "values": [
      {"measurement": "degradation of the target protein Unc119 by the full-length Klhl18 protein", "setting": "Klhl18 protein; HEK293T cells co-transfected with FLAG-Klhl18, FLAG-C-terminal Klhl18 and HA-Unc119 plasmids, anti-HA Western blot (FIG. 10)", "result": "inhibits degradation of the target protein Unc119 by the full-length Klhl18 protein"}
    ]}
  ]
}
